The text below walks through data of PubChem BioAssay AID248 (DTP/NCI, 2004).

Where “and” joins values, the source holds several entries; their conditions need not be identical. Equal entries are not always repeated. Toxic doses and inconclusive results are not listed.

The subject of the assay is L1210 leukemia ip in BDF1 mice, survival T/C. The assay is described as follows: NCI In Vivo Anticancer Drug Screen. Data for tumor model L1210 Leukemia (intraperitoneal) in B6D2F1 (BDF1) mice. To be noted: higher = longer survival. The method, boiled down: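 Antitumor effect is assessed in tumor-bearing animals. Survival in the compound arm is compared with a vehicle-dosed control arm and expressed as their quotient.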

The mark [1] stands for this setting: endpoint: mean survival time, dose: 12.5 mg/kg/injection, schedule: Q01DX009 (ip), vehicle: saline.
The mark [2] stands for this setting: endpoint: mean survival time, dose: 50.0 mg/kg/injection, schedule: Q01DX009 (ip), vehicle: saline.
Where [3] appears, read: endpoint: mean survival time, dose: 100.0 mg/kg/injection, schedule: Q01DX009 (ip), vehicle: saline.
Where [4] appears, read: endpoint: mean survival time, dose: 100.0 mg/kg/injection, schedule: Q04DX003 (ip), vehicle: saline.
Where [5] appears, read: endpoint: mean survival time, dose: 200.0 mg/kg/injection, schedule: Q01DX009 (ip), vehicle: saline.
[6] abbreviates: endpoint: mean survival time, dose: 200.0 mg/kg/injection, schedule: Q04DX003 (ip), vehicle: saline.
The mark [7] stands for this setting: endpoint: mean survival time, dose: 100.0 mg/kg/injection, schedule: Q01DX001 (ip), vehicle: Klucel (hydroxypropylcellulose) (HPC).
Setting [8] is: endpoint: mean survival time, dose: 100.0 mg/kg/injection, schedule: Q04DX003 (ip), vehicle: saline with Tween-80.
Where [9] appears, read: endpoint: mean survival time, dose: 200.0 mg/kg/injection, schedule: Q04DX003 (ip), vehicle: saline with Tween-80.
[10] abbreviates: endpoint: mean survival time, dose: 400.0 mg/kg/injection, schedule: Q04DX003 (ip), vehicle: saline with Tween-80.
[11] abbreviates: endpoint: mean survival time, dose: 75.0 mg/kg/injection, schedule: Q01DX009 (ip), vehicle: saline.

In the case of `NC(CSC(c1ccccc1)(c1ccccc1)c1ccc2ccccc2c1)C(=O)O` (stereo unspecified), the T/C (endpoint: mean survival time, dose: 0.74 mg/kg/injection, schedule: Q01DX009 (ip), vehicle: saline) was 124 % of control; the T/C (endpoint: mean survival time, dose: 3.13 mg/kg/injection, schedule: Q01DX009 (ip), vehicle: saline) is 159 % of control; the T/C (endpoint: mean survival time, dose: 6.25 mg/kg/injection, schedule: Q01DX009 (ip), vehicle: saline) was 187 % of control; the T/C (endpoint: mean survival time, dose: 6.3 mg/kg/injection, schedule: Q01DX009 (ip), vehicle: other) was 166 % of control; the T/C under setting [1] is 108 % of control; the T/C (endpoint: mean survival time, dose: 25.0 mg/kg/injection, schedule: Q01DX009 (ip), vehicle: other) was 94 % of control. The T/C was 225 % of control (endpoint: mean survival time, dose: 25.0 mg/kg/injection, schedule: Q01DX009 (ip), vehicle: saline) and 103 % of control under setting [2].
Turning to `Cc1cc(Cl)c2cc(Cl)cc(Cl)c2n1`, the T/C runs as follows: under setting [3], 89 % of control; under setting [4], 91 % of control; under setting [5], 96 % of control; under setting [6], 89 % of control; (endpoint: mean survival time, dose: 400.0 mg/kg/injection, schedule: Q04DX003 (ip), vehicle: saline) 94 % of control.
Turning to `O=c1cc(NCc2ccccc2)[nH]c(=O)[nH]1`, the T/C reads like this: (endpoint: mean survival time, dose: 50.0 mg/kg/injection, schedule: Q01DX001 (ip), vehicle: Klucel (hydroxypropylcellulose) (HPC)) 91 % of control; under setting [7], 97 % of control.
As for `COc1ccccc1C(=S)N1CCOCC1`, the T/C runs as follows: (endpoint: mean survival time, dose: 100.0 mg/kg/injection, schedule: Q04DX003 (ip), vehicle: Klucel (hydroxypropylcellulose) (HPC)) 91 % of control; (endpoint: mean survival time, dose: 200.0 mg/kg/injection, schedule: Q04DX003 (ip), vehicle: Klucel (hydroxypropylcellulose) (HPC)) 96 % of control; (endpoint: mean survival time, dose: 400.0 mg/kg/injection, schedule: Q04DX003 (ip), vehicle: Klucel (hydroxypropylcellulose) (HPC)) 99 % of control.
On to `CC(/C=C\c1ccc([N+](=O)[O-])cc1)=N\NC(=O)c1ccncc1`, for which the T/C was 98 % of control under setting [8], 98 % of control under setting [9] and 96 % of control under setting [10].
Consider `CCOC(=O)C(CC(OCC)OCC)C1=NC(C)(C)CC(C)O1` (stereo unspecified), for which the T/C is, setting by setting: under setting [7], 105 % of control; (endpoint: mean survival time, dose: 200.0 mg/kg/injection, schedule: Q01DX001 (ip), vehicle: Klucel (hydroxypropylcellulose) (HPC)) 89 % of control; (endpoint: mean survival time, dose: 400.0 mg/kg/injection, schedule: Q01DX001 (ip), vehicle: Klucel (hydroxypropylcellulose) (HPC)) 100 % of control.
As to `CCc1c(C/C(=N/O)C(=O)O)[nH]c(=S)[nH]c1=O`, the T/C is, setting by setting: under setting [8], 97 % of control; under setting [9], 97 % of control; under setting [10], 96 % of control.
Consider `COC1CCC2C(C1)C(=O)CC1c3[nH]c4ccccc4c3CCN12` (stereo unspecified), for which the T/C is 100 % of control (endpoint: mean survival time, dose: 100.0 mg/kg/injection, schedule: Q01DX001 (ip), vehicle: saline with Tween-80); 101 % of control (endpoint: mean survival time, dose: 200.0 mg/kg/injection, schedule: Q01DX001 (ip), vehicle: saline with Tween-80); 99 % of control (endpoint: mean survival time, dose: 400.0 mg/kg/injection, schedule: Q01DX001 (ip), vehicle: saline with Tween-80).
For `Cc1n[nH]c(=S)n1C`, the T/C was 108 % of control under setting [4] and 113 % of control under setting [6].
As to `CC1(C)C2CCC1(C)C(C(=O)C(F)(F)F)C2=O.CC1(C)C2CCC1(C)C(C(=O)C(F)(F)F)C2=O.[Mn]` (stereo unspecified), the T/C reads like this: (endpoint: mean survival time, dose: 50.0 mg/kg/injection, schedule: Q04DX002 (ip), vehicle: saline with Tween-80) 94 % of control; (endpoint: mean survival time, dose: 100.0 mg/kg/injection, schedule: Q04DX002 (ip), vehicle: saline with Tween-80) 98 % of control; (endpoint: mean survival time, dose: 200.0 mg/kg/injection, schedule: Q04DX002 (ip), vehicle: saline with Tween-80) 98 % of control.
Turning to `CC(C)C[C@H](O)C(=O)O`, the T/C runs as follows: (endpoint: mean survival time, dose: 33.0 mg/kg/injection, schedule: Q01DX009 (ip), vehicle: saline) 98 % of control; under setting [2], 98 % of control; under setting [11], 98 % of control; under setting [3], 97 % of control; under setting [4], 98 % of control; under setting [5], 101 % of control. For the same molecule, the T/C under setting [6] is 100 % of control.
As to `Nc1ncc(-c2ccc(CNc3ccc(C(=O)NC(CC(=O)O)CC(=O)O)cc3)cc2)c(N)n1`, the T/C is, setting by setting: (endpoint: mean survival time, dose: 10.5 mg/kg/injection, schedule: Q01DX009 (ip), vehicle: saline) 122 % of control; under setting [1], 114 % of control; (endpoint: mean survival time, dose: 14.5 mg/kg/injection, schedule: Q01DX009 (ip), vehicle: saline) 116 % of control; (endpoint: mean survival time, dose: 18.0 mg/kg/injection, schedule: Q01DX009 (ip), vehicle: saline) 114 % of control; (endpoint: mean survival time, dose: 22.0 mg/kg/injection, schedule: Q01DX009 (ip), vehicle: saline) 116 % of control; under setting [2], 165 % of control and 185 % of control. In addition, the T/C runs as follows: (endpoint: mean survival time, dose: 66.0 mg/kg/injection, schedule: Q01DX001 (ip), vehicle: saline) 122 % of control; (endpoint: mean survival time, dose: 75.0 mg/kg/injection, schedule: Q01DX001 (ip), vehicle: saline) 112 % of control and 119 % of control; under setting [11], 107 % of control; (endpoint: mean survival time, dose: 150.0 mg/kg/injection, schedule: Q01DX001 (ip), vehicle: saline) 115 % of control.
`O=CCC(O)C(O)C(O)CO` (stereo unspecified): the T/C reads like this: (endpoint: mean survival time, dose: 62.5 mg/kg/injection, schedule: Q01DX009 (ip), vehicle: saline) 115 % of control and 91 % of control; (endpoint: mean survival time, dose: 125.0 mg/kg/injection, schedule: Q01DX009 (ip), vehicle: saline) 94 % of control and 95 % of control; (endpoint: mean survival time, dose: 125.0 mg/kg/injection, schedule: Q01DX010 (ip), vehicle: saline) 94 % of control and 92 % of control; (endpoint: mean survival time, dose: 125.0 mg/kg/injection, schedule: Q01DX Z (ip), vehicle: carboxymethylcellulose (CMC)) 98 % of control; (endpoint: mean survival time, dose: 250.0 mg/kg/injection, schedule: Q01DX001 (ip), vehicle: saline) 101 % of control; (endpoint: mean survival time, dose: 250.0 mg/kg/injection, schedule: Q01DX009 (ip), vehicle: saline) 102 % of control and 104 % of control. Also, the T/C was 97 % of control and 101 % of control (endpoint: mean survival time, dose: 250.0 mg/kg/injection, schedule: Q01DX010 (ip), vehicle: saline); 102 % of control (endpoint: mean survival time, dose: 250.0 mg/kg/injection, schedule: Q01DX Z (ip), vehicle: carboxymethylcellulose (CMC)); 100 % of control (endpoint: mean survival time, dose: 500.0 mg/kg/injection, schedule: Q01DX001 (ip), vehicle: saline); 101 % of control (endpoint: mean survival time, dose: 500.0 mg/kg/injection, schedule: Q01DX009 (ip), vehicle: saline); 94 % of control and 101 % of control (endpoint: mean survival time, dose: 500.0 mg/kg/injection, schedule: Q01DX010 (ip), vehicle: saline); 116 % of control (endpoint: mean survival time, dose: 500.0 mg/kg/injection, schedule: Q01DX Z (ip), vehicle: carboxymethylcellulose (CMC)). Moreover, the T/C by setting is: (endpoint: mean survival time, dose: 1000.0 mg/kg/injection, schedule: Q01DX001 (ip), vehicle: saline) 101 % of control; (endpoint: mean survival time, dose: 1000.0 mg/kg/injection, schedule: Q01DX010 (ip), vehicle: saline) 102 % of control and 104 % of control; (endpoint: mean survival time, dose: 1000.0 mg/kg/injection, schedule: Q01DX Z (ip), vehicle: carboxymethylcellulose (CMC)) 109 % of control; (endpoint: mean survival time, dose: 2000.0 mg/kg/injection, schedule: Q01DX001 (ip), vehicle: saline) 106 % of control; (endpoint: median survival time, dose: 62.5 mg/kg/injection, schedule: Q01DX009 (ip), vehicle: saline) 100 % of control; (endpoint: median survival time, dose: 125.0 mg/kg/injection, schedule: Q01DX009 (ip), vehicle: saline) 111 % of control. Besides, the T/C runs as follows: (endpoint: median survival time, dose: 250.0 mg/kg/injection, schedule: Q01DX009 (ip), vehicle: saline) 100 % of control; (endpoint: median survival time, dose: 500.0 mg/kg/injection, schedule: Q01DX009 (ip), vehicle: saline) 100 % of control and 105 % of control.
Consider `CCCCCNCCC[P+](c1ccccc1)(c1ccccc1)c1ccccc1`, for which the T/C is 98 % of control (endpoint: mean survival time, dose: 25.0 mg/kg/injection, schedule: Q04DX002 (ip), vehicle: saline); 105 % of control (endpoint: mean survival time, dose: 50.0 mg/kg/injection, schedule: Q04DX002 (ip), vehicle: saline); 119 % of control (endpoint: mean survival time, dose: 100.0 mg/kg/injection, schedule: Q04DX002 (ip), vehicle: saline).
Take `Cc1nc2[nH]c(=O)[nH]c(=O)c2[nH]1`: the T/C was 91 % of control under setting [8], 101 % of control under setting [9] and 90 % of control under setting [10].
As for `Cc1[nH]c2ccc(C(C)(C)c3ccccc3)cc2c1C`, the T/C (endpoint: mean survival time, dose: 100.0 mg/kg/injection, schedule: Q01DX001 (ip), vehicle: saline) is 98 % of control; the T/C (endpoint: mean survival time, dose: 200.0 mg/kg/injection, schedule: Q01DX001 (ip), vehicle: saline) is 91 % of control; the T/C (endpoint: mean survival time, dose: 400.0 mg/kg/injection, schedule: Q01DX001 (ip), vehicle: saline) is 88 % of control.
